Experimental data: US5624923A, “Tricyclic diazepine vasopressin antagonists and oxytocin antagonists” (priority 1995, dated 1997)
Where “and” joins values, the source holds several entries; their conditions need not be identical. Identical values can stand only once. Each block holds one compound with its values, some of them ahead of it.

Assays:
[1] = target: T1, oxytocin receptors (Rattus norvegicus, UniProt P70536); assay: Oxytocin Receptor Binding; settings: for inhibition at 10 µM: [3H]oxytocin; for IC50: 1.0 nM [3H]oxytocin
T1 construct: The uteri are dissected out, cleaned of fat and connective tissues; from tissue; host or cells: uterus of DES-treated female Sprague-Dawley rats
T1 sequence (P70536 1-388): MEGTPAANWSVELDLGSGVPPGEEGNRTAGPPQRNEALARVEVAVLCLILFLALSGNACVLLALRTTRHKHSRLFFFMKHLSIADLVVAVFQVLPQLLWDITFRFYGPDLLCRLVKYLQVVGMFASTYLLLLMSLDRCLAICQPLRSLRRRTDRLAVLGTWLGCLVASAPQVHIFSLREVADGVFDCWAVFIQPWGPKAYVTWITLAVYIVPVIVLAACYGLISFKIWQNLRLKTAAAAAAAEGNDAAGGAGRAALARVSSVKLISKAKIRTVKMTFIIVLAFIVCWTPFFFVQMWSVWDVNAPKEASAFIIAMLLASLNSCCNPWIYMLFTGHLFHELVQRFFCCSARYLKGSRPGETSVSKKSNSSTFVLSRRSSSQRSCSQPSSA
Method: Oxytocin Receptor Binding
Female Sprague-Dawley rats weighing approximately 200-250 g are injected intramuscularly (i.m.) with 0.3 mg/kg of body weight of diethylstilbestrol (DES). The rats are sacrificed 18 hours later under pentobarbital anesthesia. The uteri are dissected out, cleaned of fat and connective tissues and rinsed in 50 ml of normal saline. The tissue pooled from six rats is homogenized in 50 ml of […] Tris.HCl, containing 0.5 mM dithiothreitol and 1.0 mM EDTA, adjusted to pH 7.4, using a polytron at setting 6 with three passes of 10 sec each. The homogenate is passed through two (2) layers of cheesecloth and the filtrate centrifuged at 1000× g for 10 min. The clear supernatant is removed and recentrifuged at 165,000× g for 30 min. The resulting pellet containing the oxytocin receptors is resuspended in 50.0 mM Tris.HCl containing 5.0 mM MgCl2 at pH 7.4, to give a protein concentration of 2.5 mg/ml of tissue suspension. This preparation is used in subsequent binding assays with [^3 H]Oxytocin.
Binding of 3,5-[^3 H]Oxytocin ([^3 H]OT) to its receptors is done in microtiter plates using [^3 H]OT, at various concentrations, in an assay buffer of 50.0 mM Tris.HCl, pH 7.4 and containing 5.0 mM MgCl2, and a mixture of protease inhibitors: BSA, 0.1 mg; aprotinin, 1.0 mg; 1,10-phenanthroline, 2.0 mg; […], 10.0 mg; and PMSF, 0.3 mg per 100 ml of buffer solution. Non-specific binding is determined in the presence of 1.0 uM unlabeled OT. The binding reaction is terminated after 60 min , at 22° C. by rapid filtration through glass fiber filters using a Brandel® cell harvester (Biomedical Research and Development Laboratories, Inc., Gaithersburg, Md.). Competition experiments are conducted at equilibrium using 1.0 nM [^3 H]OT and varying the concentration of the displacing agents. The concentrations of agent displacing 50% of [^3 H]OT at its sites (IC50) are calculated by a computer assisted LUNDON-2 program (LUNDON SOFTWARE INC., Ohio, USA).

[2] = tested on: Vasopressin V2; assay: Vasopressin V2 Antagonist Activity in Conscious Hydrated Rats; assay type: in vivo, rat; settings: AVP 0.4 μg/kg i.p.
Method: Vasopressin V2 Antagonist Activity in Conscious Hydrated Rats
Conscious hydrated rats are treated with compounds under study from 0.1 to 100 mg/kg orally or vehicle. Two to four rats are used for each compound. One hour later, arginine vasopressin (AVP, antidiuretic hormore, ADH) dissolved in peanut oil is administered at 0.4 μg/kg intraperitoneally. Two rats in each test would not receive arginine vasopressin but only the vehicle (peanut oil) to serve as water-loading control. Twenty minutes later each rat is given 30 mL/kg of deionized water orally by gavage and is placed individually in a metabolic cage equipped with a funnel and a graduated glass cylinder to collect urine for four hours. Urine volume is measured and osmolality analyzed by use of a Fiske One-Ten osmometer (Fiske Assoc., Norwood, Mass., USA). Urinary sodium, potassium, and chloride are analyzed by use of ion-specific electrodes in a Beckman E3 (Electrolyte 3) Analyzer.

[3] = tested on: Vasopressin V1; assay: Vasopressin V1 Antagonist Activity in Conscious Rats (vasopressin vasopressor response); assay type: in vivo, rat; parameters: Average Change: unit not given here; settings: SHR
Method: Vasopressin V1 Antagonist Activity in Conscious Rats
Conscious rats are restrained in a supine position with elastic tape. The area at the base of the tail is locally anesthetized by subcutaneous infiltration with 2% procaine (0.2 ml). Using aseptic technique the ventral caudal tail artery is isolated and a cannula made of PE 10 and 20 (heat-fused) tubing is passed into the lower abdominal aorta. The cannula is secured, heparinized (1000 i.u./cc), sealed and the wound closed with one or two stitches of Dexon 4-0. The caudal vein is also cannulated in the same manner for intravenous drug administration. The duration of the surgery is approximately 5 minutes. Additional local anesthesia (2% procaine or lidocaine) is provided as needed.
The animals are placed in plastic restraining cages in an upright position. The cannula is attached to a Statham P23Db pressure transducer and pulsatile blood pressure is recorded. […] The vasopressin injections are repeated 30,60,90,120,180,240 and 300 min. later. Percentage of antagonism by the compound is calculated using the pre-drug vasopressin vasopressor response as 100%.

[4] = 10 mg/kg i.v., VAS 0.01 i.u./kg, 60 min
[5] = 10 mg/kg i.v., VAS 0.01 i.u./kg, 90 min
[6] = 10 mg/kg i.v., VAS 0.01 i.u./kg, 120 min
[7] = 10 mg/kg i.v., VAS 0.01 i.u./kg, 180 min
[8] = 10 mg/kg i.v., VAS 0.01 i.u./kg, 240 min
[9] = 10 mg/kg i.v., VAS 0.01 i.u./kg, 300 min
[10] = 10 mg/kg i.v., VAS 0.02 i.u./kg, 60 min
[11] = 10 mg/kg i.v., VAS 0.02 i.u./kg, 90 min
[12] = 10 mg/kg i.v., VAS 0.02 i.u./kg, 120 min
[13] = 10 mg/kg i.v., VAS 0.02 i.u./kg, 180 min
[14] = 10 mg/kg i.v., VAS 0.02 i.u./kg, 240 min
[15] = 10 mg/kg i.v., VAS 0.02 i.u./kg, 300 min
[16] = 20 mg/kg i.v., VAS 0.01 i.u./kg, 60 min
[17] = 20 mg/kg i.v., VAS 0.01 i.u./kg, 90 min
[18] = 20 mg/kg i.v., VAS 0.01 i.u./kg, 120 min
[19] = 20 mg/kg i.v., VAS 0.01 i.u./kg, 180 min
[20] = 20 mg/kg i.v., VAS 0.01 i.u./kg, 240 min
[21] = 20 mg/kg i.v., VAS 0.01 i.u./kg, 300 min
[22] = 20 mg/kg i.v., VAS 0.02 i.u./kg, 60 min
[23] = 20 mg/kg i.v., VAS 0.02 i.u./kg, 90 min
[24] = 20 mg/kg i.v., VAS 0.02 i.u./kg, 120 min
[25] = 20 mg/kg i.v., VAS 0.02 i.u./kg, 180 min
[26] = 20 mg/kg i.v., VAS 0.02 i.u./kg, 240 min
[27] = 20 mg/kg i.v., VAS 0.02 i.u./kg, 300 min

Structure (SMILES): Cc1ccc(F)cc1C(=O)Nc1ccc(C(=O)O)cc1 [Example 417, 4-[(5-Fluoro-2-methylbenzoyl)amino]benzoic acid]
inhibition at 10 µM [1]: 21%

Structure (SMILES): Cc1c(F)cccc1C(=O)Nc1ccc(C(=O)O)c(Cl)c1 [Example 420]
inhibition at 10 µM [1]: 16%

Structure (SMILES): CCOC(=O)c1ccc2n1Cc1ccccc1N(C(=O)c1ccc(N)c(C)c1)C2 [Example 463, ethyl 10,11-dihydro-10-(4-amino-3-methylbenzoyl)-5H-pyrrolo[2,1-c]-[1,4]benzodiazepine-3-carboxylate]
IC50 [1]: 8.5 µM | inhibition at 10 µM [1]: 55%

Structure (SMILES): Cc1ccc(F)cc1C(=O)Nc1ccc(C(=O)O)c(Cl)c1 [Example 419, 4-[(5-fluoro-2-methylbenzoyl)amino]-2-chlorobenzoic acid]
inhibition at 10 µM [1]: 28%

Structure (SMILES): Cc1ccccc1C(=O)Nc1c(C)cc(C(=O)O)cc1C [Example 431, 4-[(2-methylbenzoyl)amino]-3,5-di-methylbenzoic acid]
inhibition at 10 µM [1]: 18%

Structure (SMILES): Cc1ccc(F)cc1C(=O)Nc1ccc(C(=O)O)cc1Cl [Example 436, 4-[(5-fluoro-2-methylbenzoyl)amino]-3-chlorobenzoic acid]
inhibition at 10 µM [1]: 32%

Structure (SMILES): COc1cc(C(=O)N2Cc3cccn3Cc3ccccc32)ccc1[N+](=O)[O-] [Example 455, 10,11-Dihydro-10-(3-methoxy-4-nitrobenzoyl)-5H-pyrrolo[2,1-c][1,4]benzodiazepine]
IC50 [1]: 2.9 µM | inhibition at 10 µM [1]: 75%

Structure (SMILES): O=C(Nc1ccc(C(=O)N2Cc3cccn3-c3ccccc32)cc1)c1cc(Cl)ccc1Cl [Example 16, N-[4-(pyrrolo[1,2-a]quinoxalin-5(4H)-ylcarbonyl)phenyl]-2,5-dichloro-benzamide]
Osmolality ([2]; 10 mg/kg orally): 1242 mOsm/kg | Urine Volume ([2]; 10 mg/kg orally): 5.5 ml/4 hrs | Osmolality ([2]; 30 mg/kg orally): 1295 mOsm/kg | Urine Volume ([2]; 30 mg/kg orally): 8 ml/4 hrs

Structure (SMILES): Cc1cc(C(=O)N2Cc3cccn3Cc3ccccc32)ccc1N [Example 95, 10,11-Dihydro-10-(4-amino-3-methylbenzoyl)-5H-pyrrolo[2,1-c][1,4]benzodiazepine]
% Inhibition ([3]; 10 mg/kg i.v., VAS 0.01 i.u./kg, 30 min): 35% and 65% | % Inhibition [3, 4]: 78% | Average Change [3, 4]: 7 | % Inhibition [3, 5]: 58% | Average Change [3, 5]: 13.5 | % Inhibition [3, 6]: 58% | Average Change [3, 6]: 13.5 | % Inhibition [3, 7]: 52% | Average Change [3, 7]: 15.5 | % Inhibition [3, 8]: 43% | Average Change [3, 8]: 18.5 | % Inhibition [3, 9]: 52% | Average Change [3, 9]: 15.5 | % Inhibition [3, 10]: 78% | Average Change [3, 10]: 12.5 | % Inhibition [3, 11]: 72% | Average Change [3, 11]: 16 | % Inhibition [3, 12]: 70% | Average Change [3, 12]: 17.5 | % Inhibition [3, 13]: 72% | Average Change [3, 13]: 16 | % Inhibition [3, 14]: 31% | Average Change [3, 14]: 39.5 | % Inhibition [3, 15]: 27% | Average Change [3, 15]: 42 | % Inhibition [3, 16]: 67% | Average Change [3, 16]: 15 | % Inhibition [3, 17]: 70% | Average Change [3, 17]: 13.5 | % Inhibition [3, 18]: 47% | Average Change [3, 18]: 24 | % Inhibition [3, 19]: 48% | Average Change [3, 19]: 23.5 | % Inhibition [3, 20]: 53% | Average Change [3, 20]: 21.5 | % Inhibition [3, 21]: 46% | Average Change [3, 21]: 24.5 | % Inhibition [3, 22]: 68% | Average Change [3, 22]: 19.5 | % Inhibition [3, 23]: 61% | Average Change [3, 23]: 24 | % Inhibition [3, 24]: 53% | Average Change [3, 24]: 28.5 | % Inhibition [3, 25]: 44% | Average Change [3, 25]: 34 | % Inhibition [3, 26]: 44% | Average Change [3, 26]: 34 | % Inhibition [3, 27]: 39% | Average Change [3, 27]: 37.5

Next, values leading:

inhibition at 10 µM [1]: 11%
Structure (SMILES): Cc1cc(C(=O)N2Cc3ccc(C(=O)C(Cl)(Cl)Cl)n3Cc3ccccc32)ccc1[N+](=O)[O-] [Example 448]

inhibition at 10 µM [1]: 43%
Structure (SMILES): O=C(c1ccc([N+](=O)[O-])cc1)N1Cc2ccc(C(=O)C(F)(F)F)n2Cc2ccccc21 [Example 451, 10,11-Dihydro-10-(4-nitrobenzoyl)-[3-(trifluoroacetyl)]-5H-pyrrolo[2,1-c][1,4]benzodiazepine]

IC50 [1]: 2.4 µM | inhibition at 10 µM [1]: 71%
Structure (SMILES): CCOC(=O)c1ccc2n1Cc1ccccc1N(C(=O)c1ccc(N)cc1)C2 [Example 464, ethyl 10,11-dihydro-10-(4-aminobenzoyl)-5H-pyrrolo[2,1-c][1,4]benzodiazepine-3-carboxylate]

inhibition at 10 µM [1]: 22%
Structure (SMILES): O=C(c1ccc([N+](=O)[O-])cc1Cl)N1Cc2ccc(C(=O)C(Cl)(Cl)Cl)n2Cc2ccccc21 [Example 450, 10,11-dihydro-10-(2-chloro-4-nitro-benzoyl)-[3-(trichloroacetyl)]-5H-pyrrolo[2,1-c][1,4]benzodiazepine]

inhibition at 10 µM [1]: 70%
Structure (SMILES): CCOC(=O)c1ccc2n1Cc1ccccc1N(C(=O)c1ccc([N+](=O)[O-])cc1Cl)C2 [Example 443, Ethyl 10,11-dihydro-10-(2-chloro-4-nitrobenzoyl)-5H-pyrrolo[2,1-c][1,4]benzodiazepine-3-carboxylate]
